Values after ≈ are worked out from the molar mass of the structure shown. “Also recorded” adds a separate entry of the source.
Legend:
[1] = system: HT29; assay: MTT assay, antiproliferative activity against HT29; type: cell-based, human; conditions: for IC50: Homo sapiens, HT-29; for toxicity in words, HT29: MTT assay
Protocol: (§1) The antiproliferative activity was evaluated by MTT (3-(4,5-dimethylthiazol-2-yl)-2,5-diphenyl tetrazolium bromide) assay. Four cancer cell lines; human cervical carcinoma (HeLa), human colon carcinoma (HT29 and HCT116) and human breast carcinoma (MCF-7), along with African green monkey kidney cells (Vero cells) were seeded in 96-well plates (8000 cells/well) and cultured for 24 h, followed by being treated with the selected compounds at 100 µg/mL for 72 h. Following this, 10 μL of MTT reagent (5 mg/mL in phosphate buffer solution (PBS)) was added to each well and further incubated at 37 °C for 2 h. Then, 100 μL of DMSO (dimethyl sulfoxide) was used to dissolve the formazan dye. Finally, the absorbance of the solution was measured using a microplate reader (Bio-Rad Laboratories, Hercules, CA) at wavelengths of 550 and 655 nm. The absorbance at 655 nm was used as a reference wavelength. […] Cisplatin was used as the positive control drug.

[2] = system: MCF-7; assay: MTT assay, antiproliferative activity against MCF-7; type: cell-based, human; conditions: triplicate, mean ± SD; for IC50: Homo sapiens, MCF7, 72 h
Protocol: as §1

[3] = system: HeLa; assay: MTT assay, antiproliferative activity against HeLa; type: cell-based, human; conditions: for IC50: Homo sapiens, HeLa; for toxicity in words, HeLa: MTT assay
Protocol: as §1

[4] = system: Vero cells; assay: MTT assay, antiproliferative activity against Vero cells; type: cell-based, African green monkey; conditions: Chlorocebus sabaeus, 72 h, triplicate, mean ± SD, normal cells
Protocol: as §1

[5] = system: HCT116; assay: MTT assay, antiproliferative activity against HCT116; type: cell-based, human; conditions: for IC50: Homo sapiens, HCT-116, MTT, 72 h, triplicate, mean ± SD; for toxicity in words, HCT116: MTT assay
Protocol: as §1

[6] = system: cancer cell lines (HCT116, HT29, MCF-7 and HeLa); assay: MTT assay, all four cancer cell lines together; type: cell-based, human
Protocol: as §1

[7] = system: HCT116, HT29, MCF-7, HeLa and Vero cells; assay: MTT assay, all cancer cells and normal cells together; type: cell-based
Protocol: as §1

[8] = MTT, 72 h, triplicate, mean ± SD

| SMILES | Antiproliferative activity, IC50 ± SD, HT29 [1, 8] | Antiproliferative activity, IC50 ± SD, MCF-7 ([2]; 72 h) | Antiproliferative activity, IC50 ± SD, HeLa [3, 8] | IC50 [4] | IC50 [5] | IC50 [1, 8] | IC50 [2] | IC50 [3, 8] | antiproliferative activity in words, all cancer cells [6] | melting point | toxicity in words, HCT116 [5] | toxicity in words, HT29 [1] | toxicity in words, HeLa [3] | antiproliferative activity in words, all cancer cells and normal cells ([7]; MTT assay) | IC50 ([7]; range over HCT116, HT29, MCF-7, HeLa and Vero cells, read-out: IC50 range against all cancer cells and normal cells) |
| --- | --- | --- | --- | --- | --- | --- | --- | --- | --- | --- | --- | --- | --- | --- | --- |
| N.N.[Cl][Pt][Cl] [Cisplatin, reference compound] | 1.59 ± 0.07 µg/mL | 3.13 ± 0.26 µg/mL | 1.93 ± 0.04 µg/mL |  |  |  |  |  |  |  |  |  |  |  |  |
| COc1cc2oc3cc(O)cc(O)c3c2c(C)c1O [Compound 1, 1,3,8-trihydroxy-7-methoxy-9-methyldibenzofuran] |  |  |  | 25 ± 0.63 µg/mL (≈ 96.1 µM) | 14.4 ± 0.87 µg/mL (≈ 55.2 µM) | 8.99 ± 1.96 µg/mL (≈ 34.5 µM) | 18.4 ± 0.99 µg/mL (≈ 70.7 µM) | 16.7 ± 0.55 µg/mL (≈ 64.1 µM) | moderate anti-proliferation |  |  |  |  |  |  |
| COC(=O)c1cc(OC)c(O)c2c1C[C@@H](C)OC2=O [Compound 2, (3R)-7-methoxy-5-methoxycarbonylmellein] |  |  |  | > 100 µg/mL | 92.9 ± 2.7 µg/mL (≈ 349 µM) | 96.4 ± 3.37 µg/mL (≈ 362 µM) | > 100 µg/mL | > 100 µg/mL |  | 135 to 136 °C |  |  |  |  |  |
| C[C@@H]1Cc2cccc(O)c2C(=O)O1 [Compound 3, (−)-mellein] |  |  |  | > 100 µg/mL | > 100 µg/mL | > 100 µg/mL | > 100 µg/mL | > 100 µg/mL |  |  |  |  |  |  |  |
| COC(=O)c1ccc(O)c2c1C[C@@H](C)OC2=O [Compound 4, (-)-5-methoxycarbonylmellein] |  |  |  | > 100 µg/mL | > 100 µg/mL | > 100 µg/mL | > 100 µg/mL | > 100 µg/mL |  |  |  |  |  |  |  |
| C[C@@H]1Cc2c(C(=O)O)ccc(O)c2C(=O)O1 [Compound 5, (−)-5-carboxymellein] |  |  |  | > 100 µg/mL | 54.9 ± 3.35 µg/mL (≈ 247 µM) | 72.6 ± 2 µg/mL (≈ 327 µM) | > 100 µg/mL | 57.8 ± 1.26 µg/mL (≈ 260 µM) |  |  | slightly toxic | slightly toxic | slightly toxic |  |  |
| COc1cc(O)cc2c1C(=O)O[C@H](C[C@H]1CCC[C@@H](C)O1)C2 [Compound 15, (3S,2′R,6′R)-asperentin-8-O-methylether] |  |  |  | > 100 µg/mL | 45.1 ± 3.65 µg/mL (≈ 147 µM) | 67.6 ± 6.99 µg/mL (≈ 221 µM) | > 100 µg/mL | 92.9 ± 2.7 µg/mL (≈ 303 µM) |  |  | slightly toxic | slightly toxic | slightly toxic |  |  |
| C[C@H]1CCC[C@H](Cc2cc(O)cc(O)c2)O1 [Compound 17, (2′R,6′S)-5-((-6-methyltetrahydro-2H-pyran-2-yl)methyl)benzene-1,3-diol] |  |  |  | > 100 µg/mL | 17.5 ± 1.29 µg/mL (≈ 78.7 µM) | 19.5 ± 0.77 µg/mL (≈ 87.7 µM) | 50.2 ± 3.85 µg/mL (≈ 226 µM) | 13.5 ± 1.15 µg/mL (≈ 60.9 µM) | moderate anti-proliferation |  |  |  |  |  |  |
| C[C@H]1CCC[C@H](C[C@H]2Cc3cc(O)cc(O)c3C(=O)O2)O1 [Compound 18, asperentin] |  |  |  | 8.77 ± 0.91 µg/mL (≈ 30 µM) | 2.42 ± 0.2 µg/mL (≈ 8.28 µM) | 4.51 ± 0.13 µg/mL (≈ 15.4 µM) | 10.1 ± 0.52 µg/mL (≈ 34.5 µM) | 2.09 ± 0.16 µg/mL (≈ 7.15 µM) | significantly toxic |  |  |  |  | strong broad spectrum | 2.09 to 10.1 µg/mL (≈ 7.15 to 34.5 µM) |
| COc1cc(O)cc2c1C(=O)O[C@@H](C[C@H]1CCC[C@H](C)O1)C2 [Compound 19, asperentin-8-O-methylether] |  |  |  | > 100 µg/mL | 66.5 ± 7.68 µg/mL (≈ 217 µM) | > 100 µg/mL | > 100 µg/mL | > 100 µg/mL |  |  |  |  |  |  |  |
| COc1cc(O)c2c(c1)C[C@H](C[C@H]1CCC[C@H](C)O1)OC2=O [Compound 20, asperentin-6-O-methylether] |  |  |  | > 100 µg/mL | 8.69 ± 0.69 µg/mL (≈ 28.4 µM) | 33.3 ± 4.42 µg/mL (≈ 109 µM) | 11.7 ± 0.82 µg/mL (≈ 38.2 µM) | 4.98 ± 0.4 µg/mL (≈ 16.3 µM) | significantly toxic; also recorded: moderate anti-proliferation |  |  |  |  |  |  |
| C[C@@H]1O[C@@H](C[C@H]2Cc3cc(O)cc(O)c3C(=O)O2)CC[C@@H]1O [Compound 21, 5′-hydroxyasperentin] |  |  |  | > 100 µg/mL | > 100 µg/mL | > 100 µg/mL | > 100 µg/mL | > 100 µg/mL |  |  |  |  |  |  |  |
| C[C@H]1C[C@@H](O)C[C@H](C[C@H]2Cc3cc(O)cc(O)c3C(=O)O2)O1 [Compound 22, 4′-hydroxyasperentin] |  |  |  | > 100 µg/mL | > 100 µg/mL | > 100 µg/mL | > 100 µg/mL | > 100 µg/mL |  |  |  |  |  |  |  |
